Patent US20160081935A1, “DOSAGE FORMS FOR ORAL ADMINISTRATION OF ACTIVE SUBSTANCES” (GIULIANI S.P.A., priority 2013, published 2016)
≈ marks a conversion by molar mass, not a printed value. Read-outs that look alike come from different tables or passages of the source. Values belong to the molecule of their own block, whether it stands above or below them.

What was measured:
[1] = Hydrophilicity-lipophilicity index for the active ingredient in single dose (Ip.a.), calculation method; settings: for Ip.a.: scale 0-20
Text: Where Ip.a. means the hydrophilicity-lipophilicity index for the active ingredient in single dose.
Coefficient X is equal to the solubility of the active ingredient S (mg/liter) divided by the amount of active ingredient expressed in mg per single dose (mg/dose).
A substance that is miscible in any ratio with water has an infinite water solubility, in such case considering a substance as the solute and the other as the solvent may be meaningless. Therefore, in this condition use of the above equation, which presents a horizontal asymptote, is not necessarily required. Instead, the value 20 on the scale of hydrophilicity lipophilicity is arbitrarily assigned, while the value 0, or better tending to 0, is attributed to substances considered insoluble in water.
In the case of molecules considered insoluble, the value on the solubility index scale will tend to zero, and therefore, the scale can be considered for convenience between the values 0-20.

[2] = cited from earlier work
[3] = Solubility of active ingredients in water; format: physicochemical; settings: for Solubility: 20 °C
Text: The solubility (S) of a solute is the maximum amount of solute that dissolves in a fixed amount of a particular solvent at a specified temperature.

[4] = mg per 1000 ml of water at 20° C.-25° C., 0.00001 used for practically insoluble substances

Molecule: Oc1ccc(C=Cc2cc(O)cc(O)c2)cc1 [resveratrol]
Solubility ([2]; in water): 0.003 g in 100 ml

Molecule: Cc1cc2nc3c(=O)[nH]c(=O)nc-3n(C[C@H](O)[C@H](O)[C@H](O)CO)c2cc1C [Riboflavin (form A), Riboflavin]
Solubility ([2]; volume of water that dissolves 1 g, varies with crystal form): 1 g/3-15 L **

Molecule: CSCC[C@H](N)C(=O)O [L-Methionine]
X = (mg/l)/(mg/dose) ([1]; dose 300 mg): 160 (mg/l)/(mg/dose) | Ip.a. ([1]; dose 300 mg): 20 | Solubility ([2]; at 293 K): 48 g/l at 293 K | S [2, 4]: 48000 mg/L

Molecule: CS(C)(=O)=O [Dimethyl sulfone]
X = (mg/l)/(mg/dose) ([1]; dose 500 mg): 300 (mg/l)/(mg/dose) | Ip.a. ([1]; dose 500 mg): 20 | Solubility ([2]; at 25° C.): 150 g/L at | S [2, 4]: 150000 mg/L

Now from value to molecule, other results behind:

X = (mg/l)/(mg/dose) ([1]; dose 10 mg): 0.000001 (mg/l)/(mg/dose) | Ip.a. ([1]; dose 10 mg): 0.00000
Molecule: COC1=C(OC)C(=O)C(C/C=C(\C)CC/C=C(\C)CC/C=C(\C)CC/C=C(\C)CC/C=C(\C)CC/C=C(\C)CC/C=C(\C)CC/C=C(\C)CC/C=C(\C)CCC=C(C)C)=C(C)C1=O [Ubidecarenone]
Solubility ([2]; in water, in words): practically insoluble in water | S [2, 4]: 0.00001 mg/L

Solubility ([3]; riboflavin form B, in water): 80 µg/mL (≈ 213 µM) | S ([3]; riboflavin form B): 80 mg/L
Molecule: Cc1cc2nc3c(=O)[nH]c(=O)nc-3n(C[C@H](O)[C@H](O)[C@H](O)CO)c2cc1C [Riboflavin (form B), Riboflavin]

X = (mg/l)/(mg/dose) ([1]; dose 45.3 mg): 10 (mg/l)/(mg/dose) | Ip.a. ([1]; dose 45.3 mg): 20 | X = (mg/l)/(mg/dose) ([1]; dose 453.0 mg): 1 (mg/l)/(mg/dose) | Ip.a. ([1]; dose 453.0 mg): 19.62 | X = (mg/l)/(mg/dose) ([1]; dose 498.3 mg): 0.9091 (mg/l)/(mg/dose) | Ip.a. ([1]; dose 498.3 mg): 16.85 | X = (mg/l)/(mg/dose) ([1]; dose 543.6 mg): 0.8333 (mg/l)/(mg/dose) | Ip.a. ([1]; dose 543.6 mg): 5.858 | X = (mg/l)/(mg/dose) ([1]; dose 588.9 mg): 0.7692 (mg/l)/(mg/dose) | Ip.a. ([1]; dose 588.9 mg): 0.7258 | X = (mg/l)/(mg/dose) ([1]; dose 634.2 mg): 0.7143 (mg/l)/(mg/dose) | Ip.a. ([1]; dose 634.2 mg): 0.08114
Molecule: N[C@@H](Cc1ccc(O)cc1)C(=O)O [tyrosine]
S ([2]; 25° C.): 453 mg/L

X = (mg/l)/(mg/dose) ([1]; dose 10 mg): 0.000001 (mg/l)/(mg/dose) | Ip.a. ([1]; dose 10 mg): 0.00000
Molecule: Vitamin E
Solubility ([2]; in water, in words): practically insoluble in water | S [2, 4]: 0.00001 mg/L

X = (mg/l)/(mg/dose) ([1]; dose 0.1 mg): 0.0001 (mg/l)/(mg/dose) | Ip.a. ([1]; dose 0.1 mg): 0.00000
Molecule: Vitamin A
Solubility ([2]; in water, in words): practically insoluble in water | S [2, 4]: 0.00001 mg/L

Solubility ([3]; deduced experimentally): ~80 µg/mL (≈ 213 µM)
Molecule: Cc1cc2nc3c(=O)[nH]c(=O)nc-3n(C[C@H](O)[C@H](O)[C@H](O)CO)c2cc1C [Riboflavin]
Solubility ([2]; 1 g in this volume, depending on the crystalline form, Merck Index): 3 to 15 L
